Assay [1] deals with MEF. Put plainly: Cytotoxicity against mouse MEF cells harboring H-RasV12 and p53 N236S mutant after 48 hrs by MTT assay. In kind it is functional, cell-based.
Assay [2] deals with MEF. The assay is described as follows: Cytotoxicity against mouse wild type MEF cells after 48 hrs by MTT assay. In kind it is cell-based.
For assay [3], the system named is MEF. Put plainly: Cytotoxicity against p53-/- mouse MEF cells harboring H-RasV12 after 48 hrs by MTT assay. In kind it is functional, cell-based.

Seven molecules from ChEMBL document CHEMBL2375333, “Triterpenes from the aerial parts of Cimicifuga yunnanensis and their antiproliferative effects on p53(N236S) mouse embryonic fibroblasts” (J Nat Prod, 2013) can be followed below.

Regarding `C[C@@H]1C[C@]2(OC[C@](C)(O)[C@H]2O)O[C@H]2C[C@@]3(C)C4=CC[C@H]5C(C)(C)[C@@H](O)CC[C@]5(C)C4=CC[C@]3(C)[C@@H]12`, the IC50 in assay [1] worked out at 8.6 µM; in assay [2], 6 µM.

In assay [3], `C[C@@H]1C[C@H]2O[C@@]3(O[C@@H]2C(C)(C)O)[C@H]1[C@@]1(C)[C@H](O)C[C@@]24C[C@@]25CC[C@H](O)C(C)(C)[C@@H]5CC=C4[C@]1(C)[C@H]3O` registered an IC50 of 9.8 µM.

Take `C[C@@H]1C[C@H]2O[C@]3(O[C@@H]2C(C)(C)O)[C@H]1[C@@]1(C)CCC2=C(CC[C@H]4C(C)(C)[C@@H]5CC[C@@]4(C2)O5)[C@]1(C)[C@H]3O` [ACERINOL]: in assay [3], it took 10.2 µM to reach half-maximal inhibition (IC50).

`CC(=O)O[C@@H]1C[C@@]23C[C@@]24CC[C@H](O)C(C)(C)[C@@H]4CC[C@H]3[C@]2(C)C[C@@H]3OC(=O)C[C@@H](C)[C@@H]3[C@@]12C` returned a half-maximal inhibitory concentration (IC50) in assay [3] of 7.5 µM. In turn, `C=C(C)[C@@H]1O[C@]23O[C@@H]1C[C@@H](C)[C@@H]2[C@@]1(C)CC[C@@]24C[C@@]25CC[C@H](O)C(C)(C)[C@@H]5CC[C@H]4[C@]1(C)[C@H]3O` showed an IC50 in assay [3] of 6.2 µM. Take `C[C@@H]1C[C@]2(OC[C@](C)(O)[C@H]2O)O[C@H]2C[C@@]3(C)C4=C(C[C@@H](O)[C@]3(C)[C@@H]12)[C@@]1(C)CC[C@H](O)C(C)(C)[C@@H]1CC4`: the IC50 in assay [1] turned out to be 5.5 µM; in assay [2], 14.5 µM. In assay [3], `C[C@@H]1C[C@@]2(O[C@H]3C[C@@]4(C)[C@@H]5CC[C@H]6C(C)(C)[C@@H](O)CC[C@@]67C[C@@]57C[C@@H](O)[C@]4(C)[C@@H]13)O[C@H](O)[C@]1(C)O[C@H]21` [ACTEOL] displayed an IC50 of 7.4 µM.
